Measured values reported in PMC10250256, “A radiohybrid theranostics ligand labeled with fluorine-18 and lutetium-177 for fibroblast activation protein-targeted imaging and radionuclide therapy” (European Journal of Nuclear Medicine and Molecular Imaging, 2023).

Columns and labels:
[1] = in vitro stability in PBS or murine serum (radio-HPLC); assay type: in vitro ADME
Description: [^18F]21 or [^177Lu]21 (50 μCi, 10 μL) was added to PBS (90 μL) or murine serum (90 μL) and the mixture was incubated at 37 °C for a certain time ([^18F]21: 2 h, [^177Lu]21: 8 d). The PBS mixture was injected directly into the radio-HPLC for analysis. The murine serum was precipitated with 0.1 mL of acetonitrile and centrifuged (10,000 rpm, 5 min). The supernatant was measured and analyzed by the radio-HPLC to determine the stability. For in vivo stability study, the radio tracers were injected into the tail vein of ICR mice and samples of blood were collected after a certain time post injection (pi) ([^18F]21: 4 h, [^177Lu]21: 9 h). The plasma proteins were precipitated using an equal volume of acetonitrile and centrifuged (10,000 rpm, 5 min). The RCP of radio tracer in supernatants were analyzed and quantified by radio-HPLC. The radio-HPLC method was as follows: A: 0.1% TFA in H2O, B: ACN, 0–10 min, 0–100% B. The flow rate was 1 mL/min, and the C18 column (4.6 × 150 mm, 5 μm, ZORBAX, Agilent) was used. When using HPLC to assess the stability of [^177Lu]21, the effluent was collected every 30 s due to its less radioactivity, and samples were measured by an automatic γ-counter (2480 Wizard2, Perkin Elmer). The counted samples were plotted as intensity (cpm) against fraction.

HT-1080-FAP cells = assay: cell uptake in HT-1080-FAP cells; assay type: cell-based, human
Description: (§1) The human fibrosarcoma cell lines HT-1080 and HT-1080-FAP transferred with human FAP gene were both cultured in Dulbecco modified Eagle medium supplemented with 10% fetal bovine serum (Gibco, USA) at 37℃/5% carbon dioxide. For cell uptake experiments, HT-1080-FAP cells (~ 1 × 10^5/well) or HT-1080 (~ 1 × 10^5/well) were seeded in 24-well plates for 24–48 h and incubated at 37℃ with radiolabeled compounds (74 kBq/well) in 0.5 mL of serum-free medium for indicated times. Non-specific binding was determined by co-incubating with 100 μM FAP inhibitor UAMC1110. For competitive FAP binding assays, HT-1080-FAP cells were incubated with [^177Lu]Lu-FAPI-04 (74 kBq/well) in the presence of different concentrations (10^−3–10^4 nM) of competing non-radioactive ligands. For internalization experiments, the radiotracer-incubated cells were washed twice with PBS (pH 7.4), followed by glycine–HCl (0,05 M, pH = 2.8) solution to distinguish between cell surface–bound (acid-releasable) and internalized (acid-resistant) radioligand. For efflux experiments, cells were preincubated with [^177Lu]21 or [^177Lu]Lu-FAPI-04 for 1 h and subsequently incubated at 37 °C in a medium free of radiotracer and serum for different time periods. The medium was removed and the cells were washed twice with cold PBS (pH 7.4) and subsequently lysed with 0.5 mL of NaOH (1 M). Cell lysates were collected and the radioactivity was determined using a γ-counter.

HT-1080 cells = assay: cell uptake in HT-1080 (FAP negative) cells; assay type: cell-based, human
Description: as §1, with “The medium was removed and the cells were washed twice with cold PBS (pH 7.4) and subsequently lysed with 0.5 mL of NaOH (1 M).” left out

HT-1080-FAP xenograft = assay: SPECT imaging, HT-1080-FAP xenograft; assay type: in vivo, BALB/C-nu/nu mice; settings: about 37 MBq i.v.
Description: (§2) All animal experiments were conducted in compliance with a protocol approved by the First Affiliated Hospital of Sun Yat-sen University Institutional Animal Care and Use Committee. BALB/C-nu/nu mice (4–5-week old with body weight of 16–22 g) were purchased from GemPharmatech Co., Ltd. Mice were housed under standard conditions with temperature and light control (12-h-light/12-h-dark cycle) and had free access to water and food. For the tumor model, HT-1080-FAP or HT-1080 cells (5 × 10^6) were subcutaneously injected into the right or left flank of nude mice, respectively. As the tumor diameter reached 3–4 mm, mice were treated with radioligands. Micro-PET and SPECT imaging studies, as well as biodistribution, were conducted when the tumor diameter reached 5–10 mm.
The mice bearing HT-1080-FAP or HT-1080 xenografts were injected with about 37 MBq of [^177Lu]21 via the tail vein, and SPECT (Siemens, Symbia Intevo Bold, Germany) was performed at 2 h to 8 d after injection. The SPECT parameters were as follows: medium-energy collimator, energy peaks of 113 and 208 keV, matrix of 256 × 256, and scan duration of 10 min.

HT-1080-FAP xenografts = assay: radionuclide treatment of HT-1080-FAP xenografts; assay type: in vivo, BALB/C-nu/nu mice
Description: as §2
Radionuclide therapy was performed when the diameter of HT-1080-FAP xenografts reached 3–4 mm. The mice were randomly divided into 4 groups (n = 4) and intravenously injected with [^177Lu]21 (24.05 MBq), [^177Lu]21 (9.25 MBq), [^177Lu]Lu-FAPI-04 (24.05 MBq) and saline, respectively. Tumor volume (volume = length × width^2/2) and mouse weight were measured every 2–3 d. Endpoint criteria were defined as weight loss of more than 15%, tumor volume greater than 1500 mm^3, or active ulcerations of the tumor. […]

Structure (SMILES): CC(C)(C)[Si](F)(c1ccc(C(=O)NCC(NC(=O)CCC(C(=O)O)N2CCN(CC(=O)[O-])CCN(CC(=O)[O-])CCN(CC(=O)[O-])CC2)C(=O)NCC2CCC(C(=O)NCCCOc3ccc4nccc(C(=O)NCC(=O)N5CC(F)(F)CC5C#N)c4c3)CC2)cc1)C(C)(C)C.[177Lu+3] (stereo not shown) [[^177Lu]21]
- RCP after incubating in saline and serum ([1]; 8 days, 37 °C): > 90%
- in vitro stability ([1]; as summarised in discussion): > 90%
- cell uptake (HT-1080-FAP cells; 1 h incubation): 72.53% ± 3.43
- cell uptake (HT-1080-FAP cells; 24 h incubation): 45.06% ± 2.62
- cell uptake with competitor (HT-1080-FAP cells; co-incubation with 100 μM FAP inhibitor UAMC1110): could be blocked by FAP inhibitor
- cell uptake in FAP negative cells (HT-1080 cells): Almost no uptakes
- time pi up to which high accumulation was observed (SPECT) (HT-1080-FAP xenograft): up to 144 h
- time up to which tumor uptake could be visualized (SPECT) (HT-1080-FAP xenograft): up to 6 days
- suppression of tumor growth versus control (HT-1080-FAP xenografts; 9.25 MBq i.v.): no statistically significant difference in comparison to control
- average relative tumor volume (HT-1080-FAP xenografts; 24.05 MBq i.v., end of study): 4.55
